Measurements as given in ChEMBL document CHEMBL1144852, “Optimization of a dihydropyrrolopyrazole series of transforming growth factor-beta type I receptor kinase domain inhibitors: discovery of an orally bioavailable transforming growth factor-beta receptor type I inhibitor as antitumor agent” (J Med Chem, 2008).
pEC50, pIC50: −log10 of the molar value. Blank lines part the entries; values can stand above or below the molecule they belong to.

Columns and labels:
TGF-beta receptor type-1 = TGF-beta receptor type-1 (Homo sapiens, UniProt P36897, T204D); assay: Inhibition of TGFbeta type receptor 1 ALK5 (T204D) expressed in Sf9 cells
[1] = Antiproliferative activity against mink Mv1Lu-p3TP-Lux cells by luciferase reporter assay; type: functional, cell-based, Neovison vison; conditions: Neogale vison
NIH3T3 = assay: Antiproliferative activity against mouse NIH3T3 cells by [3H]thymidine assay; type: functional, cell-based
[2] = biological target: Ribosomal protein S6 kinase alpha-5 (Homo sapiens) (UniProt O75582); assay: Inhibition of MSK1 at 20 uM
Chain of Ribosomal protein S6 kinase alpha-5 (Homo sapiens) (O75582 whole entry, looked up): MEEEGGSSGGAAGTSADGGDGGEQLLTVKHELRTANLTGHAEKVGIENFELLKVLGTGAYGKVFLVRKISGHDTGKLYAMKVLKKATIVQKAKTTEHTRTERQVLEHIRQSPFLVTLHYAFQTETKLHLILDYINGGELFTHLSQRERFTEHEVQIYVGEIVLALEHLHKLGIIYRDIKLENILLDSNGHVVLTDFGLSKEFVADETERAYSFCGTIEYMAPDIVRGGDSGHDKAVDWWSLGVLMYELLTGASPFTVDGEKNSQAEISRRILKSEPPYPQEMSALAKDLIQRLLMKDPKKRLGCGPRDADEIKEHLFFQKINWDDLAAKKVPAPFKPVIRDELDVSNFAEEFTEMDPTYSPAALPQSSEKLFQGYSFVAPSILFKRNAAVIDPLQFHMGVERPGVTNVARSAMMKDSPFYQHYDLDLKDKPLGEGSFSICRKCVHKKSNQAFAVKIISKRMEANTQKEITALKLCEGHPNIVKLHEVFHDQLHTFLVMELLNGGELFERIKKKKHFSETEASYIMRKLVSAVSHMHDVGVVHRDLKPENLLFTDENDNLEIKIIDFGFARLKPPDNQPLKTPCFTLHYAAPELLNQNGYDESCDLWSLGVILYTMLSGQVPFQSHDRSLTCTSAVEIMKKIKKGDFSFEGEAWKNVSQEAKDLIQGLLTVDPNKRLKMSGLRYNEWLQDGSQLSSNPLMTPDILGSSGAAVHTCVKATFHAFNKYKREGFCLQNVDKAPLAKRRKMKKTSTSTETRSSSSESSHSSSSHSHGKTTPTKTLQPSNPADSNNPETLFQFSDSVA

[3] = biological target: Cyclin-dependent kinase 2 (Homo sapiens) (UniProt P24941); assay: Inhibition of CDK2 at 20 uM
[4] = biological target: 5'-AMP-activated protein kinase subunit beta-1 (Homo sapiens) (UniProt Q9Y478); assay: Inhibition of AMPK at 20 uM
[5] = biological target: Tyrosine-protein kinase Blk (Homo sapiens) (UniProt P51451); assay: Inhibition of Blk at 20 uM
[6] = biological target: Fibroblast growth factor receptor 3 (Homo sapiens) (UniProt P22607); assay: Inhibition of FGFR3 at 20 uM
Chain of Fibroblast growth factor receptor 3 (Homo sapiens) (P22607 23-806 limits assumed): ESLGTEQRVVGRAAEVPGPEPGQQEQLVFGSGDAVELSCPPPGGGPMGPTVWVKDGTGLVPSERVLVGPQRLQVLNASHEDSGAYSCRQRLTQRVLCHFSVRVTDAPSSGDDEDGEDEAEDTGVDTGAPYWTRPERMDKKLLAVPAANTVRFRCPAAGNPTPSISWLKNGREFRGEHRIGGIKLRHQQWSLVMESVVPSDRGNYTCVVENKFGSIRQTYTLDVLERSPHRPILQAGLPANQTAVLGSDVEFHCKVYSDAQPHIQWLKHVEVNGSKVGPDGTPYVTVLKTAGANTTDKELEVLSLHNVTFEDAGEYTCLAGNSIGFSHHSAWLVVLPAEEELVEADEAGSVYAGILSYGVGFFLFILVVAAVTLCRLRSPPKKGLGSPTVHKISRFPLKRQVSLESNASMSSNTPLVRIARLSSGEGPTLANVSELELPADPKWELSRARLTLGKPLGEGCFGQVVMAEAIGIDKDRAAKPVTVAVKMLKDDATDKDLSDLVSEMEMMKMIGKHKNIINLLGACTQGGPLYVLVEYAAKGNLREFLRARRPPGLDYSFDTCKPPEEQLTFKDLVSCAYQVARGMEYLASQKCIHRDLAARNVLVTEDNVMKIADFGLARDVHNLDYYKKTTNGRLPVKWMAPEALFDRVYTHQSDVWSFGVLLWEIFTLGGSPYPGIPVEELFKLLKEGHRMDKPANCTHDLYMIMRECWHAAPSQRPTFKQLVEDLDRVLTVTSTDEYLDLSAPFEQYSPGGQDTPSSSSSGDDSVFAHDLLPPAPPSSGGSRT

[7] = Metabolic stability in rat microsomes; type: ADME, Microsome; note: time not given here
Mus musculus [8] = assay: Inhibition of TGFbeta type receptor 1 in human Calu6 cells xenografted mouse at 50 mg/kg, po by single point IVTI assay; type: functional, Calu-6; parameters: scale not given: the % may be the effect or the level left
Mus musculus [9] = assay: Inhibition of TGFbeta type receptor 1 in orally dosed human Calu6 cells xenografted mouse by IVTI […] assay; type: functional, organism-based; conditions: Calu-6
Caco-2 = assay: Permeability from apical to basolateral side of human Caco-2 cell membrane; type: ADME, cell-based
[10] = biological target: Tyrosine-protein kinase Lck (Homo sapiens) (UniProt P06239); assay: Inhibition of Lck at 20 uM
[11] = biological target: Mitogen-activated protein kinase 14 (Homo sapiens) (UniProt Q16539); assay: Inhibition of Sapk2-alpha at 20 uM
[12] = biological target: Dual specificity mitogen-activated protein kinase kinase 6 (Homo sapiens) (UniProt P52564); assay: Inhibition of MKK6 at 20 uM
Chain of Dual specificity mitogen-activated protein kinase kinase 6 (Homo sapiens) (P52564 whole entry): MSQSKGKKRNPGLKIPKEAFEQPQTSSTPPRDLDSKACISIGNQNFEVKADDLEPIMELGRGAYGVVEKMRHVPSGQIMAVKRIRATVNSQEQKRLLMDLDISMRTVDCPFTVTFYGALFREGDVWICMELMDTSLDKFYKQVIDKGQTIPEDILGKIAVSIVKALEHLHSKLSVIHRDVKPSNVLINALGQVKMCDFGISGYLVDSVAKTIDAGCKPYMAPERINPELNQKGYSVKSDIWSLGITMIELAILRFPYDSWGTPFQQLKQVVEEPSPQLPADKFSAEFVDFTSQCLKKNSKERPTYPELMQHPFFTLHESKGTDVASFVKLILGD

[13] = biological target: Tyrosine-protein kinase Fyn (Homo sapiens) (UniProt P06241); assay: Inhibition of Fyn at 20 uM
[14] = biological target: Mitogen-activated protein kinase 10 (Homo sapiens) (UniProt P53779); assay: Inhibition of JNK3 at 20 uM
[15] = biological target: Mitogen-activated protein kinase 11 (Homo sapiens) (UniProt Q15759); assay: Inhibition of Sapk2-beta at 20 uM
Chain of Mitogen-activated protein kinase 11 (Homo sapiens) (Q15759 whole entry): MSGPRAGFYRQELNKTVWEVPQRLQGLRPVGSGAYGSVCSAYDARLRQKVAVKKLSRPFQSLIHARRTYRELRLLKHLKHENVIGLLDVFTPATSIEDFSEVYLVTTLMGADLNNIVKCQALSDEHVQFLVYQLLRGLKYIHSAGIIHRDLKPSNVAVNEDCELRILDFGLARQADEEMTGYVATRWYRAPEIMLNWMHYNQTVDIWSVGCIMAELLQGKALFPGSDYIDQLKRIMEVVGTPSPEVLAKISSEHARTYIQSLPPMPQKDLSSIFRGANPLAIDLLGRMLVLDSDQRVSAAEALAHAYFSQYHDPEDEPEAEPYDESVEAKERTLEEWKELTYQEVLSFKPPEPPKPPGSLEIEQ

[16] = biological target: Mitogen-activated protein kinase 1 (Homo sapiens) (UniProt P28482); assay: Inhibition of MAPK1 at 20 uM
[17] = biological target: Proto-oncogene tyrosine-protein kinase Src (Homo sapiens) (UniProt P12931); assay: Inhibition of cSRC at 20 uM
Chain of Proto-oncogene tyrosine-protein kinase Src (Homo sapiens) (P12931 2-536 limits assumed): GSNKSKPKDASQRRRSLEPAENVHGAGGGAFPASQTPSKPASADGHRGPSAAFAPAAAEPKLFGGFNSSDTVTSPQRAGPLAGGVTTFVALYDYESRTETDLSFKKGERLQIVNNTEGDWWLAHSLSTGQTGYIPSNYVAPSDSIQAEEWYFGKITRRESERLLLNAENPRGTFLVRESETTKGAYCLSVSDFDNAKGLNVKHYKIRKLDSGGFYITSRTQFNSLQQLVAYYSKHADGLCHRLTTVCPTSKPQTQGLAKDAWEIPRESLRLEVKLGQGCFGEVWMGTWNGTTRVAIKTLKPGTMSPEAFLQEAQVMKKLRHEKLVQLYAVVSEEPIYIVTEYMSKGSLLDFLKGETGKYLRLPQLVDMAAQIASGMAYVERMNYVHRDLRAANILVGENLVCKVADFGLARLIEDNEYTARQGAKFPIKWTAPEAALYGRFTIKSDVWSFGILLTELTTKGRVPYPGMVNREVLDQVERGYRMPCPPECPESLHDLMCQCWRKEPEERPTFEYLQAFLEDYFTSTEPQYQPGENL

[18] = biological target: Glycogen synthase kinase-3 beta (Homo sapiens) (UniProt P49841); assay: Inhibition of GSK3-beta at 20 uM
Chain of Glycogen synthase kinase-3 beta (Homo sapiens) (P49841 whole entry, looked up): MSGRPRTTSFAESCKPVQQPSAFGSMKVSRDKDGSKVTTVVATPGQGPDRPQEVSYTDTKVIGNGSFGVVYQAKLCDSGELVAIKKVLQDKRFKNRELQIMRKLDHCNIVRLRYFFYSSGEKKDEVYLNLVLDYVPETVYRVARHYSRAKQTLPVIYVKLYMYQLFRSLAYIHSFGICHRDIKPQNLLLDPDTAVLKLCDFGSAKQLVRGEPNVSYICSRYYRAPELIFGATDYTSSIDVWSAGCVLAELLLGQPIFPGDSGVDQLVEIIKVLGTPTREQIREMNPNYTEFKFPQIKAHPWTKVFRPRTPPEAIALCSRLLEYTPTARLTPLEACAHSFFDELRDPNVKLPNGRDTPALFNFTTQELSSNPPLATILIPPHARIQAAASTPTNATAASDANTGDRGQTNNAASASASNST

[19] = biological target: Mitogen-activated protein kinase 9 (Homo sapiens) (UniProt P45984); assay: Inhibition of JNK2-alpha-2 at 20 uM
[20] = biological target: RAF proto-oncogene serine/threonine-protein kinase (Homo sapiens) (UniProt P04049); assay: Inhibition of cRaf at 20 uM
[21] = biological target: Mitogen-activated protein kinase 12 (Homo sapiens) (UniProt P53778); assay: Inhibition of Sapk3 at 20 uM
[22] = biological target: MAP kinase-activated protein kinase 5 (Homo sapiens) (UniProt Q8IW41); assay: Inhibition of PRAK at 20 uM
[23] = biological target: Ribosomal protein S6 kinase beta-1 (Homo sapiens) (UniProt P23443); assay: Inhibition of p70S6K at 20 uM
[24] = biological target: Cyclin-dependent kinase 1 (Homo sapiens) (UniProt P06493); assay: Inhibition of CDK1 at 20 uM
Chain of Cyclin-dependent kinase 1 (Homo sapiens) (P06493 whole entry, looked up): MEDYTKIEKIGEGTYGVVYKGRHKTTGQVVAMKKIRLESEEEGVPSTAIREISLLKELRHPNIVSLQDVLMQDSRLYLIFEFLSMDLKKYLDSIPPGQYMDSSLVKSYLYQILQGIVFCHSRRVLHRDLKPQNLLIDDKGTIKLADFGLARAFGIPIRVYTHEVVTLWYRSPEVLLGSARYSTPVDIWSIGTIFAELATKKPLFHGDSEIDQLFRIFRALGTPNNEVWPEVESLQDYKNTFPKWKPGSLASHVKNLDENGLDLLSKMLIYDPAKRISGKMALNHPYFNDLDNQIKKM

[25] = biological target: Serine/threonine-protein kinase N2 (Homo sapiens) (UniProt Q16513); assay: Inhibition of PRK2 at 20 uM
[26] = biological target: Protein kinase C delta type (Homo sapiens) (UniProt Q05655); assay: Inhibition of PKCdelta at 20 uM
[27] = Inhibition of JNK1-alpha at 20 uM
[28] = biological target: Serine/threonine-protein kinase Sgk1 (Homo sapiens) (UniProt O00141); assay: Inhibition of SGK at 20 uM
[29] = biological target: Mitogen-activated protein kinase 13 (Homo sapiens) (UniProt O15264); assay: Inhibition of Sapk4 at 20 uM
[30] = biological target: Dual specificity mitogen-activated protein kinase kinase 1 (Homo sapiens) (UniProt Q02750); assay: Inhibition of Mek1 at 20 uM
[31] = biological target: Serine/threonine-protein kinase Chk1 (Homo sapiens) (UniProt O14757); assay: Inhibition of Chk1 at 20 uM
[32] = biological target: Dual specificity mitogen-activated protein kinase kinase 7 (Homo sapiens) (UniProt O14733); assay: Inhibition of MKK7-beta at 20 uM
Chain of Dual specificity mitogen-activated protein kinase kinase 7 (Homo sapiens) (O14733 whole entry): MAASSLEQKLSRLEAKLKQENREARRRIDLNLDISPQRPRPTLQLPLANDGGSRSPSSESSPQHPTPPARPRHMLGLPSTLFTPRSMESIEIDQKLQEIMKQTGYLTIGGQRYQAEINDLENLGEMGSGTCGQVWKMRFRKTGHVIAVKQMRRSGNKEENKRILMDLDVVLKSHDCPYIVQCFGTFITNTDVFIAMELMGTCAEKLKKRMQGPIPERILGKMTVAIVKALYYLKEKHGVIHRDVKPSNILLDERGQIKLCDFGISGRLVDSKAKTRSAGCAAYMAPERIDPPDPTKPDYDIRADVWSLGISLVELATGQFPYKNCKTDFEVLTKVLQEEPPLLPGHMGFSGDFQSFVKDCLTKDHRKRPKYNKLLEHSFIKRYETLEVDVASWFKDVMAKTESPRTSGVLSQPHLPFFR

[33] = biological target: Serine/threonine-protein kinase Chk2 (Homo sapiens) (UniProt O96017); assay: Inhibition of Chk2 at 20 uM
Chain of Serine/threonine-protein kinase Chk2 (Homo sapiens) (O96017 whole entry): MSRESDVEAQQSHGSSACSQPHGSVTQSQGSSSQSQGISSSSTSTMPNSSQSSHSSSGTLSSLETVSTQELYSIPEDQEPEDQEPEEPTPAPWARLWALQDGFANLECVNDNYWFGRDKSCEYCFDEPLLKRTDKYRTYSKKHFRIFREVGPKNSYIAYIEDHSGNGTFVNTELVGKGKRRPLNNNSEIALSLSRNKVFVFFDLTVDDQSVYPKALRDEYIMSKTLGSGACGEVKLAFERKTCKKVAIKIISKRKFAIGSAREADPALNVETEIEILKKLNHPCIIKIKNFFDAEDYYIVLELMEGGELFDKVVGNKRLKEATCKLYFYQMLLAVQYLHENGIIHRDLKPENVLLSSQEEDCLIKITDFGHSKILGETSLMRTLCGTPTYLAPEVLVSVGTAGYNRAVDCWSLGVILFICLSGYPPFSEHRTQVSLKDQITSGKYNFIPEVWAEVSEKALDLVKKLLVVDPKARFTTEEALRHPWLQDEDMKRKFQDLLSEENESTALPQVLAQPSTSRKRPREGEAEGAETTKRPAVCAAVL

[34] = biological target: Rho-associated protein kinase 2 (Homo sapiens) (UniProt O75116); assay: Inhibition of Rock2 at 20 uM
[35] = biological target: Protein kinase C beta type (Homo sapiens) (UniProt P05771); assay: Inhibition of PKC-beta-2 at 20 uM
[36] = biological target: Vascular endothelial growth factor receptor 2 (Homo sapiens) (UniProt P35968); assay: Inhibition of KDR at 20 uM
[37] = biological target: Tyrosine-protein kinase ZAP-70 (Homo sapiens) (UniProt P43403); assay: Inhibition of ZAP70 at 20 uM
[38] = biological target: Dual specificity mitogen-activated protein kinase kinase 4 (Homo sapiens) (UniProt P45985); assay: Inhibition of MKK4 at 20 uM
[39] = biological target: MAP kinase-activated protein kinase 2 (Homo sapiens) (UniProt P49137); assay: Inhibition of MAPKAPK2 at 20 uM
[40] = Inhibition of PKA at 20 uM
[41] = biological target: RAC-alpha serine/threonine-protein kinase (Homo sapiens) (UniProt P31749); assay: Inhibition of PKBalpha at 20 uM
Chain of RAC-alpha serine/threonine-protein kinase (Homo sapiens) (P31749 whole entry): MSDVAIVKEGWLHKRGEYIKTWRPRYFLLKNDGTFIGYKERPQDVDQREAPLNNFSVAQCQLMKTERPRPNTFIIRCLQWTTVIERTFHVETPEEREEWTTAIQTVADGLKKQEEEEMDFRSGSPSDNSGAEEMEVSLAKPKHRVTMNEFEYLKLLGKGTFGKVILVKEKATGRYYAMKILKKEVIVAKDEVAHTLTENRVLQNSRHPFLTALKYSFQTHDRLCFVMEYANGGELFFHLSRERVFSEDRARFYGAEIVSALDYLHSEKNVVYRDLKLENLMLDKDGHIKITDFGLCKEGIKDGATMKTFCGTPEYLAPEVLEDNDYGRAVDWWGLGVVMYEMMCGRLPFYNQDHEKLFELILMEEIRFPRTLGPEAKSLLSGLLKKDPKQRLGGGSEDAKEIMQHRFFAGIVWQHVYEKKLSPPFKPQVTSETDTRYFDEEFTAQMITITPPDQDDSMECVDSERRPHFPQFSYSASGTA

[42] = Inhibition of CaMK2 at 20 uM
[43] = Inhibition of CK2 at 20 uM
[44] = biological target: Protein kinase C alpha type (Homo sapiens) (UniProt P17252); assay: Inhibition of PKCalpha at 20 uM
Liver microsomes = assay: Metabolic stability in human liver microsomes; type: ADME, Microsome; note: time not given here

pIC50 (TGF-beta receptor type-1): 6.85
Compound: Cc1cccc(-c2nn3c(c2-c2ccnc4ccc(OC(F)(F)F)cc24)CCC3)n1
pIC50 [1]: 6.70 | pIC50 (NIH3T3): 6.60

Compound: CN1CCN(C(=O)COc2ccc3c(-c4c(-c5ccccn5)nn5c4CCC5)ccnc3c2)CC1
pIC50 (TGF-beta receptor type-1): 7.31 | pIC50 [1]: 6.59 | pIC50 (NIH3T3): 6.14

pIC50 (TGF-beta receptor type-1): 4.70
Compound: Clc1cc(-c2c(-c3ccccn3)nn3c2CCC3)c2ccccc2n1
pIC50 [1]: < 4.70 | pIC50 (NIH3T3): < 4.70

pIC50 (TGF-beta receptor type-1): 5.96
Compound: NC(=O)c1ccc(Oc2ccc3c(-c4c(-c5ccccn5)nn5c4CCC5)ccnc3c2)cc1

pIC50 (TGF-beta receptor type-1): 7.33
Compound: CN(C)CCCCCOc1ccc2c(-c3c(-c4ccccn4)nn4c3CCC4)ccnc2c1
pIC50 [1]: 7.62 | pIC50 (NIH3T3): 7.29

pIC50 (TGF-beta receptor type-1): 5.32
Compound: O=C(O)c1ccc(Oc2ccc3c(-c4c(-c5ccccn5)nn5c4CCC5)ccnc3c2)cc1
pIC50 [1]: < 4.70 | pIC50 (NIH3T3): < 4.70

pIC50 (TGF-beta receptor type-1): 6.80
Compound: Oc1ccc2c(-c3c(-c4ccccn4)nn4c3CCC4)ccnc2c1
pIC50 [1]: 6.70 | pIC50 (NIH3T3): 6.38

Compound: CN(C)CCOc1ccc2c(-c3c(-c4ccccn4)nn4c3CCC4)ccnc2c1
inhibition [2]: < 50% | inhibition [3]: < 50% | inhibition [4]: < 50% | inhibition [5]: < 50% | inhibition [6]: < 50% | Stability [7]: 60% | Activity (Mus musculus [8]): 59% | pEC50 (Mus musculus [9]): 6.51 | permeability (Caco-2): 28% | pIC50 (NIH3T3): 7.01 | inhibition [10]: 81% | inhibition [11]: 87% | inhibition [12]: 62% | inhibition [13]: 18% | inhibition [14]: 51% | inhibition [15]: 29% | inhibition [16]: 30% | inhibition [17]: < 50% | inhibition [18]: < 50% | inhibition [19]: < 50% | inhibition [20]: < 50% | inhibition [21]: < 50% | inhibition [22]: < 50% | inhibition [23]: < 50% | inhibition [24]: < 50% | inhibition [25]: < 50% | inhibition [26]: < 50% | inhibition [27]: < 50% | inhibition [28]: < 50% | inhibition [29]: < 50% | inhibition [30]: < 50% | inhibition [31]: < 50% | inhibition [32]: < 50% | inhibition [33]: < 50% | inhibition [34]: < 50% | inhibition [35]: < 50% | inhibition [36]: < 50% | inhibition [37]: < 50% | inhibition [38]: < 50% | inhibition [39]: < 50% | inhibition [40]: < 50% | inhibition [41]: < 50% | inhibition [42]: < 50% | inhibition [43]: < 50% | inhibition [44]: < 50%

Stability (Liver microsomes): 55% | Stability [7]: 97% | permeability (Caco-2): 42% | pIC50 (TGF-beta receptor type-1): 6.89
Compound: c1ccc(-c2nn3c(c2-c2ccnc4cc(OCC5CCCO5)ccc24)CCC3)nc1 (configuration not stated)
pIC50 [1]: 7.10 | pIC50 (NIH3T3): 6.60

pIC50 (TGF-beta receptor type-1): 6.71
Compound: Cc1cccc(-c2nn3c(c2-c2ccnc4ccc(C(=O)NCCN(C)C)cc24)CCC3)n1
pIC50 [1]: 6.33 | pIC50 (NIH3T3): 5.64

Compound: CN(C)Cc1ccc(Oc2ccc3c(-c4c(-c5ccccn5)nn5c4CCC5)ccnc3c2)cc1
pIC50 (TGF-beta receptor type-1): 6.12

pIC50 (TGF-beta receptor type-1): < 4.70
Compound: c1ccc(-c2nn3c(c2-c2cc(N4CCCC4)nc4ccccc24)CCC3)nc1
pIC50 [1]: < 4.70

Stability (Liver microsomes): 99% | Stability [7]: 99% | permeability (Caco-2): 54% | pIC50 (TGF-beta receptor type-1): 7.48
Compound: ClCCOc1ccc2c(-c3c(-c4ccccn4)nn4c3CCC4)ccnc2c1
pIC50 [1]: 7.18 | pIC50 (NIH3T3): 7.01
